Publication PMC9428149, “Tackling recalcitrant Pseudomonas aeruginosa infections in critical illness via anti-virulence monotherapy” (Nature Communications, 2022)
In brackets after ≈: the same amount, converted by molar mass. Several values for one entry are separate records, joined by “and”; a condition that tells them apart may be missing. Equal entries are not always repeated. Where two headings read alike, the source gives them in different places.

Experiments:
[1] = system: pqsA promoter (PA14 PpqsA-GFPASV); test: pqsA-GFP reporter expression; type: cell-based, Pseudomonas aeruginosa; settings: Pseudomonas aeruginosa
[2] = system: pyocyanin production in PA14; test: Pyocyanin production assay; settings: Pseudomonas aeruginosa
[3] = system: MvfR-regulated small molecules in PA14; test: Production of HAQs, 2-AA, DHQ and AA in PA14 cultures (LC-MS); settings: Pseudomonas aeruginosa
Experimental: The HAQs HHQ, PQS, HQNO, and non-HAQs: 2-AA and DHQ produced by PA14 cells were quantified in the presence of NAMs. The overnight grown starter culture was diluted 1:100 in 5 mL LB media in a glass tube and was allowed to grow in the presence (50 µM) or absence of compound at 37 °C and 200 rpm in an incubator shaker until OD600 was 3. Bacterial cultures were subsequently mixed 1:1 (400 μL: 400 μL) with 100% methanol containing 20 ppm (20 μg mL^−1) of tetradeutero-PQS (PQS-D4) and 10 ppm of tetradeutero-HHQ (HHQ-D4) in a 1.5 mL Eppendorf tube. The mixture was vortexed for 5 seconds and spun down for 5 minutes at 12,000 x g. A 700 μL aliquot of the supernatant was removed and stored in glass vials at −20 °C until further liquid chromatography-mass spectrophotometry (LC/MS) analysis as previously described in Lepine et al., 2003[66]. LC/MC analysis was performed using a Micromass Quattro II triple quadrupole mass spectrometer (Micromass Canada, Pointe-Claire, Canada) in positive electrospray ionization mode, interfaced to an HP1100 HPLC equipped with a 4.5 × 150 mm reverse-phase C8 column.
GraphPad Prism 9.2.0 software was used to plot the IC50 curve against the percent inhibition of these small molecules’ production at each concentration.

PA14 AT/P cells = test: AT/P cells formation assay in PA14; type: cell-based, Pseudomonas aeruginosa
ΔmvfR biofilm = test: Biofilm formation of ΔmvfR mutant (off-target); settings: Pseudomonas aeruginosa, PA14, 24 h, read-out: Biofilm formation, ΔmvfR + compound; PA14 about 100; single replicates (Figure 4c)
[4] = Solubility in iPBS pH 7.4 by HPLC; type: physicochemical; settings: isotonic phosphate buffer (iPBS), aqueous with cosolvent or surfactant or cyclodextrin, kinetic from dmso stock; iPBS pH 7.4, HPLC; read-out: Solubility (M) in PBS
Procedure, shortened: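 Compounds from 10 mM DMSO stock shaken 4 h at room temperature in iPBS pH 7.4 (10 mM PBS, 2.7 mM KCl, 140 mM NaCl, 0.05% Tween), then filtered. Concentration measured by HPLC-UV against a known standard solution; solubility given as ratio of compound in test solution to standard.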

[5] = system: PA14 isogenic mutant ΔmvfR AT/P cells; test: AT/P cell formation in ΔmvfR mutant (off-target); settings: Pseudomonas aeruginosa, PA14, 24 h, read-out: AT/P cell formation, ΔmvfR + compound; PA14 about 100; single replicates (Figure 4b)
[6] = system: mvfR mutant constitutively expressing the pqsABCDE operon; type: cell-based; settings: Pseudomonas aeruginosa, control about 100, single replicates (Figure 4a)
MvfR protein (MvfRC87) = target: T1, MvfR protein (MvfRC87) (Pseudomonas aeruginosa, UniProt Q9I4X0); type: binding; settings: SPR
T1 construct: The MvfRC87 protein purified as in Xiao et. al., 2006; made in house
Procedure, shortened: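 MvfRC87 amine-coupled to a CM7 chip (3000–5000 RU) and binding measured by SPR. Double-reference-corrected responses 5 s before end of association plotted against concentration, for inhibitor alone and with native ligand PQS, compared with responses calculated for different binding sites.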

[7] = system: 16 MDR P. aeruginosa clinical isolates; test: Pyocyanin production in MDR clinical isolates; settings: Pseudomonas aeruginosa, 18 h, Control about 100, replicates

T1 sequence (Q9I4X0 87-332): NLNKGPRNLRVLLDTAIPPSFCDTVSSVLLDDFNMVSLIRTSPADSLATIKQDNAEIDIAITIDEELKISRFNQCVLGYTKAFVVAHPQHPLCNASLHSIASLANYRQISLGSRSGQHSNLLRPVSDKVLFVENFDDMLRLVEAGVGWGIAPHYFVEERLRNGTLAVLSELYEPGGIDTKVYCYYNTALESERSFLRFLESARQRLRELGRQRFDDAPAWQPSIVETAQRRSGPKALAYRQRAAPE

Structure (SMILES): N#Cc1ccc(NC(=O)CC(=O)Nc2ccc(C(F)(F)F)cc2)cc1 [D69]
- activity at 50 µM ([1]; PA14, read-out: % Production pqsA-GFP): 2%
- IC50 ([1]; PA14, read-out: IC50 pqsA-GFP expression, PA14, 13 concentrations): 1.7 µM
- activity at 50 µM ([2]; PA14, 18 h, read-out: % Production Pyocyanin): 4%
- IC50 ([2]; PA14, read-out: IC50 pyocyanin production): 0.96 µM
- activity at 50 µM ([3]; PA14, read-out: % Production 2-AA): 15%
- activity at 50 µM ([3]; PA14, read-out: % Production AA): 920%
- activity at 50 µM ([3]; PA14, read-out: % Production DHQ): 13%
- activity at 50 µM ([3]; PA14, read-out: % Production HHQ): 6%
- activity at 50 µM ([3]; PA14, read-out: % Production HQNO): 40%
- activity at 50 µM ([3]; PA14, read-out: % Production PQS): 16%
- inhibition at 50 µM ([3]; PA14, read-out: HHQ production inhibition): 89 to 99%
- inhibition at 50 µM ([3]; PA14, read-out: HQNO production inhibition): 40 to 92%
- inhibition at 50 µM ([3]; PA14, read-out: PQS production inhibition): 76 to 97%
- inhibition at 50 µM ([3]; PA14, read-out: inhibition of 2-AA production): 82 to 95%
- inhibition at 50 µM ([3]; PA14, read-out: inhibition of DHQ production): 82 to 96%
- AT/P cells formation, percentage of control (single replicates) (PA14 AT/P cells; PA14, 10 μg mL^−1 meropenem, 10 µM compound, 24 h, control PA14 + vehicle): 16.39% and 11.56%
- inhibition at 10 µM (PA14 AT/P cells; Pseudomonas aeruginosa, PA14, 24 h, read-out: inhibition of AT/P cells formation): ≥ 76%
- activity at 10 µM (ΔmvfR biofilm): 24.2%
- solubility at 4 h [4]: 2.1e-05 M (≈ 7.29 µg/mL)
- activity at 10 µM [5]: 30.1%
- activity at 50 µM ([6]; read-out: DHQ, ΔmvfR-pqsABCD strain): 112%
- activity at 50 µM ([6]; read-out: PQS, ΔmvfR-pqsABCD strain): 90.7%
- Response Unit (RU) (MvfR protein (MvfRC87); Concentration 1.00E-05 M): 30 RU
- Response Unit (RU) (MvfR protein (MvfRC87); Concentration 1.00E-06 M): 22.4 RU
- Response Unit (RU) (MvfR protein (MvfRC87); Concentration 1.00E-07 M): 8.9 RU
- Response Unit (RU) (MvfR protein (MvfRC87); Concentration 1.00E-08 M): 1.7 RU
- Response Unit (RU) (MvfR protein (MvfRC87); Concentration 3.16E-06 M): 27.3 RU
- Response Unit (RU) (MvfR protein (MvfRC87); Concentration 3.16E-07 M): 15.6 RU
- Response Unit (RU) (MvfR protein (MvfRC87); Concentration 3.16E-08 M): 4.1 RU
- activity at 10 µM ([7]; read-out: Pyocyanin production relative to Control, clinical isolate LGR-4325): 6.19%
- activity at 10 µM ([7]; read-out: Pyocyanin production relative to Control, clinical isolate LGR-4326): 4.51%
- activity at 10 µM ([7]; read-out: Pyocyanin production relative to Control, clinical isolate LGR-4327): 7.7%
- activity at 10 µM ([7]; read-out: Pyocyanin production relative to Control, clinical isolate LGR-4328): 29.6%
- activity at 10 µM ([7]; read-out: Pyocyanin production relative to Control, clinical isolate LGR-4330): 12.9%
- activity at 10 µM ([7]; read-out: Pyocyanin production relative to Control, clinical isolate LGR-4331 (first section, r117)): 9.26%
- activity at 10 µM ([7]; read-out: Pyocyanin production relative to Control, clinical isolate LGR-4331 (second section, r140)): 4.8%
- activity at 10 µM ([7]; read-out: Pyocyanin production relative to Control, clinical isolate LGR-4333): 6.7%
- activity at 10 µM ([7]; read-out: Pyocyanin production relative to Control, clinical isolate LGR-4343): 10.8%
- activity at 10 µM ([7]; read-out: Pyocyanin production relative to Control, clinical isolate LGR-4344): 11.6%
- activity at 10 µM ([7]; read-out: Pyocyanin production relative to Control, clinical isolate LGR-4348): 7.58%
- activity at 10 µM ([7]; read-out: Pyocyanin production relative to Control, clinical isolate LGR-4356): 6.29%
- activity at 10 µM ([7]; read-out: Pyocyanin production relative to Control, clinical isolate LGR-4362): 12.3%
- activity at 10 µM ([7]; read-out: Pyocyanin production relative to Control, clinical isolate LGR-4363): 9.09%
- activity at 10 µM ([7]; read-out: Pyocyanin production relative to Control, clinical isolate LGR-4364 (first section, r326)): 10.1%
- activity at 10 µM ([7]; read-out: Pyocyanin production relative to Control, clinical isolate LGR-4364 (second section, r349)): 11.1%
